According to patent US20240100121A1, “COMPOSITIONS OF A BETA-HAIRPIN PEPTIDOMIMETIC AND AEROSOL DOSAGE FORMS THEREOF” (priority 2020, published 2024):
Converted amounts (≈) assume the structure as drawn. Like-named read-outs stand apart in the source and are kept apart here. Where a SMILES comes first, the peptide text is derived from it. [ ]: non-standard residue; d: D form. dDab = NCC[C@@H](N)C(=O)O; Orn = NCCC[C@H](N)C(=O)O; Dab = NCC[C@H](N)C(=O)O

Assays:
[1] = test system: Pseudomonas aeruginosa isolates from respiratory samples of people with cystic fibrosis growing in biofilms; type: cell-based
From the text: (§1) Two types of assays, an open and a closed system, were used to evaluate the in vitro activity on biofilms. The closed or static system based on the Calgary device (Diez-Aguilar M et al., Antimicrob Agents Chemother. 2018, 62, e01650-17, doi: 10.1128/AAC.01650-17, Moskowitz S M et al., J. Clin. Microbiol. 2004, 42, 1915-1922) analyzes biofilm formation in the wells of microtiter plates and is suitable for high-throughput analysis, obtaining pharmacodynamics (PD) parameters, while the open or dynamic system using the BioFlux device (Benoit M R et al., Appl. Environ. Microbiol. 2010, 76, 4136-4142) better resembles the in vivo conditions.
(§2) To perform biofilm tests with the Calgary device, fifty-three Pseudomonas aeruginosa isolates from respiratory samples of people with cystic fibrosis were selected among the 414 Pseudomonas aeruginosa of the iABC-collection (Ekkelenkamp M B et al., Antimicrob. Agents Chemother. 2019, 64, 1-7). A representative number of isolates from Northern Ireland, Spain, the Netherlands, and Australia were chosen, including different morphotyes: 18 smooth, 11 mucoid, 11 rough, 10 metallic, and 3 small colony variants. As control strains, the PAO (most commonly used strain for research on this ubiquitous and metabolically versatile opportunistic pathogen, Klockgether J et al., Journal of Bacteriology 2010, 192, 1113-1121) and its hypermutator derivative, PAO mutS strains were used (Oliver A et al., Antimicrob. Agents Chemother. 2004, 48, 4226-33).
(§3) This assay was performed as previously described but with minimal variations (Benoit M R et al., Appl. Environ. Microbiol. 2010, 76, 4136-4142) (FIG. 3). Briefly, a 0.5 McFarland culture was transferred to a flat-bottom 96-well microtiter plate (Nalge Nunc International, Rochester, New York, USA). Bacterial biofilm was formed around the pegs of a modified polystyrene microtiter lid. This lid with pegs was immersed into a growth plate and incubated for 20 h at 37° C. After rinsing the pegs 3 times in saline solution they were placed onto the antimicrobial in BBL™ Mueller-Hinton II cation-adjusted broth (MHB) (Becton, Dickinson and Company, Sparks, MD, USA) and incubated for 20 h at 37° C. […] After this incubation, the biofilm was recovered centrifuging (800 RPM/10 min) the peg lid in an antibiotic-free MHB filled-microtiter plate. The minimal biofilm inhibitory concentration (MBIC) was calculated after measuring the optical density (OD) (450 nm) before and after 6-hour incubation. Biofilm growth was defined as a mean OD difference of ≥0.05. […] The minimal biofilm eradication concentration (MBEC) was defined as the lowest concentration that prevents visible growth in the biofilm recovery medium after 18 h of the microtiter plate incubation (Ceri H et al., J. Clin. Microbiol. 1999, 37, 1771; Macià M D et al., Enferm. Infecc. Microbiol. Clin. 2018, 36, 375-381).
MBIC and the MBEC are used to determine the anti-biofilm antibiotic in vitro efficacy. MBIC is the lowest concentration at which there is no time-dependent increase in the mean number of biofilm viable cells comparing an early with a later exposure time, while the MBEC indicates the eradication (partly or completely) of biofilm viable cells (Thieme L et al., Biol. Proced. Online 2019, 21, 1-5).

PA40 (mucoid phenotype) [2] = type: cell-based, Pseudomonas aeruginosa
Experimental: (§4) Two CF isolates, PA34 (smooth phenotype) and PA40 (mucoid phenotype), and the 2 reference strains PAO and PAO mutS were tested with the BioFlux device. None of the clinical strains were hypermutators.
as §3
(§5) Planktonic and biofilm susceptibility of the strains established in the Calgary device and used in the BioFlux device are described in Table 12.

PAO mutS [3] = type: cell-based, Pseudomonas aeruginosa
Experimental: as §4, §3, §5

PA34 (smooth phenotype) [4] = type: cell-based, Pseudomonas aeruginosa
Experimental: as §4, §3, §5

PAO [5] = type: cell-based, Pseudomonas aeruginosa
Experimental: as §4, §3, §5

PA40 (mucoid phenotype) [6] = assay: microbe, parasite or virus in culture; type: cell-based, Pseudomonas aeruginosa
Experimental: as §4, §5

PA34 (smooth phenotype) [7] = assay: microbe, parasite or virus in culture; type: cell-based, Pseudomonas aeruginosa
Experimental: as §4, §5

PAO [8] = assay: microbe, parasite or virus in culture; type: cell-based, Pseudomonas aeruginosa
Experimental: as §4, §5

PAO mutS [9] = assay: Planktonic susceptibility (MIC), PAO mutS; type: cell-based, Pseudomonas aeruginosa
Experimental: as §4, §5

[10] = test system: Pseudomonas aeruginosa isolates from respiratory samples of people with cystic fibrosis; assay: Planktonic susceptibility (MIC) of CF isolates; type: cell-based
From the text: as §2

[11] = 28-day dose inhalation study in CD-1 mice; type: in vivo
Experimental: (§6) In the 28-day dose inhalation study in CD-1 mice (20-minute snout only exposure), the mean estimated achieved doses of 0.8, 3.5 and 7.2 mg/kg/day murepavadin free base were administered. […] There were no other findings considered test item related.

[12] = set-up: species or system cynomolgus monkeys; conditions: cynomolgus monkey, in vivo
Experimental: as §6

[13] = test system: clinical Pseudomonas aeruginosa isolates; assay: Mouse lung infection model (PK-PD); type: in vivo
[14] = test system: PAO, PAO mutS, PA40, PA34; assay: Planktonic susceptibility of all strains used in the BioFlux device; type: cell-based, Pseudomonas aeruginosa
Experimental: as §4, §5

[15] = test system: Pseudomonas aeruginosa biofilms (PAO, PAO mutS, PA34, PA40); assay: Biofilm assays performed by the BioFlux microfluidic open system; type: cell-based; conditions: both open and closed biofilm-testing systems
From the text: as §1, with “conditions. […]” for “conditions.”
Several biofilms were simultaneously developed in a 48 wells plate in the BioFlux 200 system, following an adapted protocol from Benoit M R et al. (Appl. Environ. Microbiol. 2010, 76, 4136-4142). […] Biofilm images were taken using a Nikon Eclipse Ti microscope (Nikon, Tokyo, Japan) and analyzed with the ImageJ program (Java-based image processing program, National Institute of Health, Bethesda, Maryland, USA and Laboratory for Optical and Computational Instrumentation, University of Wisconsin, Wisconsin, USA). The mean percentage of intensity of red fluorescence corresponding to dead cells within the biofilm is represented in a bar chart as black bar (FIG. 4). […]

[16] = biofilm, Calgary device, CF isolates
[17] = Pseudomonas aeruginosa, PA40, read-out: MIC
[18] = Pseudomonas aeruginosa, PA34, read-out: MIC
[19] = Pseudomonas aeruginosa, PAO, read-out: MIC
[20] = Pseudomonas aeruginosa, read-out: MIC50
[21] = Pseudomonas aeruginosa, read-out: MIC90

C[C@H]1[C@H](NC(=O)/C(=N\OC(C)(C)C(=O)O)c2csc(N)n2)C(=O)N1S(=O)(=O)O [aztreonam]
MBEC50 [1, 16]: 512/>512 mg/L
MBEC90 [1, 16]: 512/>512 mg/L
MBIC50 [1, 16]: 32 mg/L
MBIC90 [1, 16]: > 512 mg/L
MBEC (PA40 (mucoid phenotype) [2]; PA40): >256 mg/L
MBIC (PA40 (mucoid phenotype) [2]; PA40): 32 mg/L
MBEC (PAO mutS [3]): >256 mg/L
MBIC (PAO mutS [3]): >256 mg/L
MBEC (PA34 (smooth phenotype) [4]; PA34): 256 mg/L
MBIC (PA34 (smooth phenotype) [4]; PA34): 8 mg/L
MBEC (PAO [5]; PAO): >256 mg/L
MBIC (PAO [5]; PAO): >256 mg/L
MIC (PA40 (mucoid phenotype) [6]; [17]): 16 µg/mL (≈ 36.7 µM)
MIC (PA34 (smooth phenotype) [7]; [18]): 0.5 µg/mL (≈ 1.15 µM)
MIC (PAO [8]; [19]): 4 µg/mL (≈ 9.19 µM)
MIC (PAO mutS [9]; Pseudomonas aeruginosa): 64 µg/mL (≈ 147 µM)
MIC range [10]: 0.5 to 512 µg/mL
MIC50 [10, 20]: 4 µg/mL (≈ 9.19 µM)
MIC90 [10, 21]: 256 µg/mL (≈ 588 µM)

CC[C@H](C)[C@@H]1NC(=O)[C@H](Cc2c[nH]c3ccccc23)NC(=O)[C@H]([C@@H](C)O)NC(=O)[C@@H]2CCCN2C(=O)[C@H]2CCCN2C(=O)[C@H](CO)NC(=O)[C@H](C)NC(=O)[C@H](CCN)NC(=O)[C@H](CCN)NC(=O)[C@H](Cc2c[nH]c3ccccc23)NC(=O)[C@H](CCN)NC(=O)[C@@H](CCN)NC(=O)[C@H](CCCN)NC(=O)[C@H](CCN)NC1=O [murepavadin, cyclo(-Thr-Trp-Ile-Dab-Orn-^DDab-Dab-Trp-Dab-Dab-Ala-Ser-^DPro-Pro-)] (cyclo(TWI[Dab][Orn][dDab][Dab]W[Dab][Dab]AS[dP]P); ring closure inferred)
MBEC50 [1]: 16 mg/L
MBEC90 [1, 16]: 64 mg/L
MBIC50 [1, 16]: 4 mg/L
MBIC90 [1, 16]: 32 mg/L
MBIC range [1, 16]: ≤0.5 to 64 mg/L
No Observed Adverse Effect Level (NOAEL) ([11]; 28-day inhalation, 0.8, 3.5 and 7.2 mg/kg/day, adverse pathology in the upper respiratory tract): no No Observed Adverse Effect Level (NOAEL) could be established
systemic toxicity ([11]; 28-day inhalation, 20-minute snout only exposure, up to 7.2 mg/kg/day murepavadin free base): no evidence of systemic toxicity
MBEC (PA40 (mucoid phenotype) [2]): 8 mg/L
MBIC (PA40 (mucoid phenotype) [2]): 2 mg/L
MBEC (PAO mutS [3]): 256 mg/L
MBIC (PAO mutS [3]): 32 mg/L
MBEC (PA34 (smooth phenotype) [4]): 4 mg/L
MBIC (PA34 (smooth phenotype) [4]): 2 mg/L
MBEC (PAO [5]): 8 mg/L
MBIC (PAO [5]): 4 mg/L
microscopic test item related findings at the tracheal bifurcation [12]: not considered adverse
MIC (PA40 (mucoid phenotype) [6]): 0.06 µg/mL (≈ 0.0386 µM)
MIC (PA34 (smooth phenotype) [7]): 0.06 µg/mL (≈ 0.0386 µM)
MIC (PAO [8]): 0.06 µg/mL (≈ 0.0386 µM)
reduction of bacterial burden ([13]; IT doses of 0.075-0.625 mg/kg, three out of four clinical isolates): > 2 log10
achieved dose required to attain the ELF AUC exposure ([13]; inhalation administration): 0.18 mg/kg
achieved dose required to attain the ELF AUC exposure ([13]; intra-tracheal (i.t.) administration): 0.10 mg/kg
mean AUC exposure in ELF sufficient to achieve a 1-login reduction of bacterial burden ([13]; subcutaneous injection, 15 clinical Pseudomonas aeruginosa isolates): 12.23 h·mg/L
MIC ([14]; all tested strains susceptible): 0.12 µg/mL (≈ 0.0772 µM)
MIC50 [10]: ≤ 0.5 µg/mL
MIC90 [10]: 1 µg/mL (≈ 0.644 µM)
MIC range [10]: ≤0.5 to 32 µg/mL
activity against biofilms of Pseudomonas aeruginosa [15]: displayed activity

colistin
MBEC50 [1, 16]: 64 mg/L
MBEC90 [1, 16]: 128 mg/L
MBEC range [1, 16]: ≤0.5 to 256 mg/L
MBIC50 [1, 16]: 8 mg/L
MBIC90 [1, 16]: 64 mg/L
MBIC range [1, 16]: ≤0.5 to 256 mg/L
MBEC (PA40 (mucoid phenotype) [2]; PA40): 32 mg/L
MBIC (PA40 (mucoid phenotype) [2]; PA40): 32 mg/L
MBEC (PAO mutS [3]): 256 mg/L
MBIC (PAO mutS [3]): 256 mg/L
MBEC (PA34 (smooth phenotype) [4]; PA34): 128 mg/L
MBIC (PA34 (smooth phenotype) [4]; PA34): 32 mg/L
MBEC (PAO [5]; PAO): 128 mg/L
MBIC (PAO [5]; PAO): 64 mg/L
MIC (PA40 (mucoid phenotype) [6]; PA40): 0.5 µg/mL
MIC (PA34 (smooth phenotype) [7]; PA34): 2 µg/mL
MIC (PAO [8]; PAO): 1 µg/mL
MIC ([14]; all tested strains susceptible): 2 µg/mL
MIC (PAO mutS [9]; PAO mutS): 1 µg/mL
MIC50 [10]: 1 µg/mL
MIC90 [10]: 4 µg/mL
MIC range [10]: ≤0.5 to 16 µg/mL

NC[C@H]1O[C@H](O[C@H]2[C@H](O)[C@@H](O[C@H]3O[C@H](CO)[C@@H](O)[C@H](N)[C@H]3O)[C@H](N)C[C@@H]2N)[C@H](N)C[C@@H]1O [tobramycin]
MBEC50 [1, 16]: 8 mg/L
MBEC90 [1, 16]: 256 mg/L
MBEC range [1, 16]: ≤0.5 to 512 mg/L
MBIC50 [1, 16]: 2 mg/L
MBIC90 [1, 16]: 32 mg/L
MBIC range [1, 16]: ≤0.5 to 512 mg/L
MBEC (PA40 (mucoid phenotype) [2]; PA40): 4 mg/L
MBIC (PA40 (mucoid phenotype) [2]; PA40): 2 mg/L
MBEC (PAO mutS [3]): 32 mg/L
MBIC (PAO mutS [3]): 16 mg/L
MBEC (PA34 (smooth phenotype) [4]; PA34): 2 mg/L
MBIC (PA34 (smooth phenotype) [4]; PA34): 2 mg/L
MBEC (PAO [5]; PAO): 16 mg/L
MBIC (PAO [5]; PAO): 2 mg/L
MIC (PA40 (mucoid phenotype) [6]; [17]): 0.5 µg/mL (≈ 1.07 µM)
MIC (PA34 (smooth phenotype) [7]; [18]): 0.25 µg/mL (≈ 0.535 µM)
MIC (PAO [8]; [19]): 0.5 µg/mL (≈ 1.07 µM)
MIC ([14]; Pseudomonas aeruginosa): 2 µg/mL (≈ 4.28 µM)
MIC (PAO mutS [9]; Pseudomonas aeruginosa): 2 µg/mL (≈ 4.28 µM)
MIC range [10]: ≤0.5 to 256 µg/mL
MIC50 [10, 20]: 2 µg/mL (≈ 4.28 µM)
MIC90 [10, 21]: 16 µg/mL (≈ 34.2 µM)
